One experiment addresses T1, RORγ-LBD (Homo sapiens, UniProt P51449).
T1 construct: made in house; host or cells: SF9 cells (baculovirus)
T1 sequence (P51449 269-508 limits assumed): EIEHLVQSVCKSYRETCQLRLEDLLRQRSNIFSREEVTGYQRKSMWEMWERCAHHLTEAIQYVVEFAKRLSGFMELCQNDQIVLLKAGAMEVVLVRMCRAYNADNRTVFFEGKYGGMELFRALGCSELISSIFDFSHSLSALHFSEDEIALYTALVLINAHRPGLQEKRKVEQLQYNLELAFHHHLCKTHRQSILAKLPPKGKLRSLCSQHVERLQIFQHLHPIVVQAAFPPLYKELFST
Briefly: RORγ-Ligand Binding Domain (LBD) TR-FRET Assay.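 As to TR-FRET Assay Max Response: 665/615 nm ratio relative to signal without ursolic acid or compound set at 100.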 It counts as biochemical. In short, it runs like this:
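His-tagged RORγ-LBD from SF9 baculovirus lysate, ~3 nM final, in 50 mM Tris pH 7.0, 50 mM KCl, 1 mM EDTA, 0.1 mM DTT, 0.01% BSA. Biotinylated SRC1 LXXLL peptide at 200 nM final with 2 μM ursolic acid; TR-FRET read-out, 1% DMSO final.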
A general note: In TR-FRET formats the signal depends on donor and acceptor labels being close together.

In a further experiment the target is T2, Gal4-RORγ-LBD (Homo sapiens, UniProt P51449).
T2 construct: expressed in transfected cells; host or cells: HEK-293 cells (pcDNA3.1neo plasmid)
T2 sequence (P51449 269-508 limits assumed): T1 sequence (P51449 269-508 limits assumed)
The experiment can be described thus: Gal4-RORγ Luciferase Reporter Assay in HEK-293T Cells. It counts as cell-based. The conditions noted are these: HEK-293 cells, luciferase reporter, with 2 μM ursolic acid. In short, it runs like this:
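HEK-293 cells were transiently co-transfected with Gal4-RORγ-LBD and pGL4.31 Gal4-luciferase, with ursolic acid added at 2 μM final. Compounds were incubated overnight at 37° C. in 0.2% DMSO and luminescence read with One-Glo. Max Response is the upper plateau of a 4-parameter logistic fit, with signal lacking ursolic acid or compound set to 100.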
In general terms: In a reporter assay the amount or activity of a reporter protein is the signal.

The term EC50 denotes the concentration that produces a half-maximal response. With `COc1ccc(-c2ccc3c(c2)N(S(=O)(=O)c2cccc(C(F)(F)F)c2)C[C@H](CCC(=O)O)O3)cc1` [Compound 2U, (S)-3-(6-(4-methoxyphenyl)-4-((3-(trifluoromethyl)phenyl)-sulfonyl)-3,4-dihydro-2H-benzo[b][1,4]oxazin-2-yl)propanoic acid], on RORγ-LBD, the EC50 is less than 500 nM and the “TR-FRET Assay Max Response” value is reported as “*** (The symbol “***” indicates a value in the range of greater than 150 to 200)”. Besides, at Gal4-RORγ-LBD, the EC50 is 500 to 5000 nM and the “Gal4-RORγ Assay Max Response” value was “* (The symbol “*” indicates a value in the range of 25 to 90)”.
The like results for `COc1cncc(-c2ccc3c(c2)N(S(=O)(=O)c2cccc(C(F)(F)F)c2)C[C@H](CCC(=O)O)O3)c1` [Compound 2V, (S)-3-(6-(5-methoxypyridin-3-yl)-4-((3-(trifluoromethyl)-phenyl)sulfonyl)-3,4-dihydro-2H-benzo[b][1,4]oxazin-2-yl)propanoic acid] were, in that order, less than 500 nM, “*** (The symbol “***” indicates a value in the range of greater than 150 to 200)”, less than 500 nM and “** (The symbol “**” indicates a value in the range of greater than 90 to 150)”.
The like results for `O=C(O)CC[C@H]1CN(S(=O)(=O)c2cccc(C(F)(F)F)c2)c2cc(-c3ccc(F)cc3Cl)ccc2O1` [Compound 2W, (S)-3-(6-(2-chloro-4-fluorophenyl)-4-((3-(trifluoromethyl)phenyl)-sulfonyl)-3,4-dihydro-2H-benzo[b][1,4]oxazin-2-yl)propanoic acid] were, in that order, less than 500 nM, “*** (The symbol “***” indicates a value in the range of greater than 150 to 200)”, 500 to 5000 nM and “** (The symbol “**” indicates a value in the range of greater than 90 to 150)”.
Consider `Cc1ccc(-c2ccc3c(c2)N(S(=O)(=O)c2cccc(C(F)(F)F)c2)C[C@H](CCC(=O)O)O3)cc1` [Compound 2X, (S)-3-(6-(p-tolyl)-4-((3-(trifluoromethyl)phenyl)-sulfonyl)-3,4-dihydro-2H-benzo[b][1,4]oxazin-2-yl)propanoic acid], for which, at RORγ-LBD, the EC50 was less than 500 nM and the “TR-FRET Assay Max Response” value was “**** (The symbol “****” indicates a value greater than 200)”. On Gal4-RORγ-LBD, the EC50 was less than 500 nM and the “Gal4-RORγ Assay Max Response” value is “** (The symbol “**” indicates a value in the range of greater than 90 to 150)”.
As for `CC(C)c1cccc(-c2ccc3c(c2)N(S(=O)(=O)c2cccc(C(F)(F)F)c2)C[C@H](CCC(=O)O)O3)c1` [Compound 2Y, (S)-3-(6-(3-isopropylphenyl)-4-((3-(trifluoromethyl)phenyl)-sulfonyl)-3,4-dihydro-2H-benzo[b][1,4]oxazin-2-yl)propanoic acid], on RORγ-LBD, the EC50 was less than 500 nM and the “TR-FRET Assay Max Response” value is “*** (The symbol “***” indicates a value in the range of greater than 150 to 200)”. In addition, at Gal4-RORγ-LBD, the EC50 was less than 500 nM and the “Gal4-RORγ Assay Max Response” value is “** (The symbol “**” indicates a value in the range of greater than 90 to 150)”.
For the molecule `CC(C)c1ccc(-c2ccc3c(c2)N(S(=O)(=O)c2cccc(C(F)(F)F)c2)C[C@H](CCC(=O)O)O3)cc1` [Compound 2Z, (S)-3-(6-(4-isopropylphenyl)-4-((3-(trifluoromethyl)phenyl)-sulfonyl)-3,4-dihydro-2H-benzo[b][1,4]oxazin-2-yl)propanoic acid], on RORγ-LBD, the EC50 is less than 500 nM and the “TR-FRET Assay Max Response” value was “** (The symbol “**” indicates a value in the range of greater than 90 to 150)”. The molecule further gave an EC50 at Gal4-RORγ-LBD of more than 10000 nM.
Turning to `O=C(O)CC[C@H]1CN(S(=O)(=O)c2cccc(C(F)(F)F)c2)c2cc(-c3cc(C(F)(F)F)ccn3)ccc2O1` [Compound 3, (S)-3-(4-((3-(trifluoromethyl)phenyl)sulfonyl)-6-(4-(trifluoromethyl)pyridin-2-yl)-3,4-dihydro-2H-benzo[b][1,4]oxazin-2-yl)propanoic acid], on RORγ-LBD, the EC50 was less than 500 nM and the “TR-FRET Assay Max Response” value is “*** (The symbol “***” indicates a value in the range of greater than 150 to 200)”. For the same molecule, at Gal4-RORγ-LBD, the EC50 is 500 to 5000 nM and the “Gal4-RORγ Assay Max Response” value is reported as “*** (The symbol “***” indicates a value in the range of greater than 150 to 200)”.
`O=C(O)CC[C@H]1CN(S(=O)(=O)c2cccc(C(F)(F)F)c2)c2cc(-c3cccc(C(F)(F)F)n3)ccc2O1` [Compound 4A, (S)-3-(4-((3-(trifluoromethyl)-phenyl)sulfonyl)-6-(6-(trifluoromethyl)pyridin-2-yl)-3,4-dihydro-2H-benzo[b][1,4]oxazin-2-yl)propanoic acid]: on RORγ-LBD, the EC50 was less than 500 nM and the “TR-FRET Assay Max Response” value was “*** (The symbol “***” indicates a value in the range of greater than 150 to 200)”. For the same molecule, at Gal4-RORγ-LBD, the EC50 was less than 500 nM and the “Gal4-RORγ Assay Max Response” value is “*** (The symbol “***” indicates a value in the range of greater than 150 to 200)”.
In the case of `CCOc1cccc(-c2ccc3c(c2)N(S(=O)(=O)c2cccc(C(F)(F)F)c2)C[C@H](CCC(=O)O)O3)c1F` [Compound 4AA, (S)-3-(6-(3-ethoxy-2-fluorophenyl)-4-((3-(trifluoromethyl)phenyl)sulfonyl)-3,4-dihydro-2H-benzo[b][1,4]oxazin-2-yl)propanoic acid], at RORγ-LBD, the EC50 is less than 500 nM and the “TR-FRET Assay Max Response” value is “**** (The symbol “****” indicates a value greater than 200)”. Further, at Gal4-RORγ-LBD, the EC50 is less than 500 nM and the “Gal4-RORγ Assay Max Response” value is “** (The symbol “**” indicates a value in the range of greater than 90 to 150)”.
Regarding `O=C(O)CC[C@H]1CN(S(=O)(=O)c2cccc(C(F)(F)F)c2)c2cc(-c3cccc(OCCO)c3)ccc2O1` [Compound 4AB, (S)-3-(6-(3-(2-hydroxyethoxy)-phenyl)-4-((3-(trifluoromethyl)phenyl)-sulfonyl)-3,4-dihydro-2H-benzo[b][1,4]oxazin-2-yl)propanoic acid], the EC50 at RORγ-LBD and on Gal4-RORγ-LBD was more than 10000 nM in each case.
Take `CC(C)n1cc(-c2ccc3c(c2)N(S(=O)(=O)c2cccc(C(F)(F)F)c2)C[C@H](CCC(=O)O)O3)cn1` [Compound 4AC, (S)-3-(6-(1-isopropyl-1H-pyrazol-4-yl)-4-((3-(trifluoromethyl)phenyl)sulfonyl)-3,4-dihydro-2H-benzo[b][1,4]oxazin-2-yl)propanoic acid]: at RORγ-LBD, the half-maximal effective concentration (EC50) was less than 500 nM and the “TR-FRET Assay Max Response” value is “**** (The symbol “****” indicates a value greater than 200)”. For the same molecule, at Gal4-RORγ-LBD, the EC50 is less than 500 nM and the “Gal4-RORγ Assay Max Response” value was “* (The symbol “*” indicates a value in the range of 25 to 90)”.
For the molecule `O=C(O)CC[C@H]1CN(S(=O)(=O)c2cccc(C(F)(F)F)c2)c2cc(-c3cccnc3-c3ccccc3)ccc2O1` [Compound 4AD, (S)-3-(6-(2-phenylpyridin-3-yl)-4-((3-(trifluoromethyl)-phenyl)sulfonyl)-3,4-dihydro-2H-benzo[b][1,4]oxazin-2-yl)propanoic acid], the EC50 at RORγ-LBD and on Gal4-RORγ-LBD was more than 10000 nM in each case.
